{"source": "ChEMBL document CHEMBL1157222", "about": "“Anxiolytic effect of natural galphimines from Galphimia glauca and their chemical derivatives” (2006)", "key": {"[1]": {"system": "Mus musculus", "test": "Anxiolytic effect in ICR mouse assessed as increase in number of entries on open arm at 15 mg/kg, ip administered 1 hr before by elevated plus-maze test", "type": "functional", "conditions": "route intraperitoneal"}, "[2]": {"system": "Mus musculus", "test": "Anxiolytic effect in ICR mouse assessed as increase in time spent on open arm at 15 mg/kg, ip administered 1 hr before by elevated plus-maze test", "type": "functional", "conditions": "route intraperitoneal"}, "[3]": {"system": "Mus musculus", "test": "Anxiolytic effect in ICR mouse assessed as increase in time spent on open arm at 1.0 mg/kg, ip administered 1 hr before by elevated plus-maze test", "type": "functional, organism-based", "set-up": "dose 1 mg/kg"}, "[4]": {"system": "Mus musculus", "test": "Anxiolytic effect in ICR mouse assessed as increase in entries of open arm at 1.0 mg/kg, ip administered 1 hr before by elevated plus-maze test", "type": "functional, organism-based", "set-up": "dose 1 mg/kg"}, "[5]": {"system": "Mus musculus", "test": "Anxiolytic effect in ICR mouse assessed as […] in time spent on open arm at 2.0 mg/kg, ip administered 1 hr before by elevated plus-maze test", "type": "functional, organism-based", "set-up": "dose 2 mg/kg"}, "[6]": {"system": "Mus musculus", "test": "Anxiolytic effect in ICR mouse assessed as […] in entries of open arm at 2.0 mg/kg, ip administered 1 hr before by elevated plus-maze test", "type": "functional, organism-based", "set-up": "dose 2 mg/kg"}}, "note": "Activity calls are given as the source filed them. The calls are words filed in the database; no cut-off is given here."}
{"molecule": "COC(=O)[C@@]12CC[C@@]3(C)[C@@H]4C=CC(=O)OC[C@]4([C@@H](C)O)C[C@@H](O)[C@@H]3[C@@]1(C)CC[C@@]1(C)CC=C(C)C[C@]12O", "note": "[GALPHIMINE B]", "values": [{"measurement": "Activity", "setting": "[1]", "value": 72.5, "unit": "%"}, {"measurement": "Activity", "setting": "[2]", "value": 76.3, "unit": "%"}]}
{"molecule": "COC(=O)[C@@]12CC[C@@]3(C)[C@@H]4C=CC(=O)OC[C@]4([C@@H](C)O)[C@@H](O)[C@@H](O)[C@@H]3[C@@]1(C)CC[C@@]1(C)CC=C(C)C[C@]12O", "note": "[GALPHIMINE A]", "values": [{"measurement": "Activity", "setting": "[1]", "value": 76.8, "unit": "%"}, {"measurement": "Activity", "setting": "[2]", "value": 68.3, "unit": "%"}]}
{"molecule": "CN1C(=O)CN=C(c2ccccc2)c2cc(Cl)ccc21", "values": [{"measurement": "Activity", "setting": "[3]", "value": "Active"}, {"measurement": "Activity", "setting": "[4]", "value": "Active"}]}
{"molecule": "C=C(C)[C@@H]1[C@H]2OC(=O)[C@@H]1[C@]1(O)C[C@H]3OC34C(=O)O[C@H]2[C@@]41C.CC(C)(O)[C@@H]1[C@H]2OC(=O)[C@@H]1[C@]1(O)C[C@H]3OC34C(=O)O[C@H]2[C@@]41C", "note": "(stereo not given in full)", "values": [{"measurement": "Activity", "setting": "[5]", "value": "Active"}, {"measurement": "Activity", "setting": "[6]", "value": "Active"}]}
{"molecule": "COC(=O)CC[C@H]1[C@]2(C)CC[C@@]3(C(=O)OC)[C@]4(O)CC(C)=CC[C@]4(C)CC[C@]3(C)[C@H]2[C@H](O)[C@H](O)[C@]1(CO)[C@@H](C)O", "values": [{"measurement": "Activity", "setting": "[1]", "value": 61.8, "unit": "%"}, {"measurement": "Activity", "setting": "[2]", "value": 76.8, "unit": "%"}]}
